Measured values as given in patent US20060135522A1, “Tricyclic delta-opioid modulators” (priority 2004, published 2006).
Like-named read-outs stand apart in the source and are kept apart here.

Columns and labels:
[1] = target: T1, mu opioid receptor (Rattus norvegicus, UniProt P33535); experiment: Rat Brain Mu Opioid Receptor Binding Assay
T1 construct: from tissue; host or cells: forebrain of male Wistar rats (particulate membrane preparation)
Protocol: Procedure: Male, Wistar rats (150-250 g, VAF, Charles River, Kingston, N.Y.) were killed by CO2, and their brains were removed and placed immediately in ice cold Tris HCl buffer (50 mM, pH 7.4). The forebrains were separated from the remainder of the brain by a coronal transection, beginning dorsally at the colliculi and passing ventrally through the midbrain-pontine junction. After dissection, the forebrains were homogenized in Tris buffer in a Teflon®-glass homogenizer. The homogenate was diluted to a concentration of 1 g of forebrain tissue per 80 mL Tris and centrifuged at 39,000×g for 10 min. The pellet was resuspended in the same volume of Tris buffer containing 5 mM MgCl2 with several brief pulses from a Polytron homogenizer. This particulate preparation was used for the mu opioid binding assays.
(§1) Analysis: The data from the scintillation counter was used to calculate either the % inhibition compared to control binding (when only a single concentration of test compound was evaluated) or a Ki value (when a range of concentrations was tested). Percent inhibition was calculated as: [(total dpm-test compound dpm)/(total dpm-nonspecific dpm)]*100. Kd and Ki values were calculated using GraphPad PRISM data analysis program.

[2] = target: T2, delta opioid receptor (Rattus norvegicus, UniProt P33533); experiment: Rat Brain Delta Opioid Receptor Binding Assay
T2 construct: from tissue; host or cells: forebrain of male Wistar rats (particulate membrane preparation)
T2 sequence (P33533 whole entry): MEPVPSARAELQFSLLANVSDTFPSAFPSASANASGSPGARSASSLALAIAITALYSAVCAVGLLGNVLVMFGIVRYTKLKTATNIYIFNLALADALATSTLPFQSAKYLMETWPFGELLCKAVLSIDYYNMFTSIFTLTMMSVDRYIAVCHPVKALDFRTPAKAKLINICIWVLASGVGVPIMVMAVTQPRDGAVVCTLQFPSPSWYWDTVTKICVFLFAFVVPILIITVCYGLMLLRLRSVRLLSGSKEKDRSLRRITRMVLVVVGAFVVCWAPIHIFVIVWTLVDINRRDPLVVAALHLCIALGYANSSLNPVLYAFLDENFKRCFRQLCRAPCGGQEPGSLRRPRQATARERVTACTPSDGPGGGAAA
Protocol: Procedure: Male, Wistar rats (150-250 g, VAF, Charles River, Kingston, N.Y.) were killed by CO2, and their brains were removed and placed immediately in ice cold Tris HCl buffer (50 mM, pH 7.4). The forebrains were separated from the remainder of the brain by a coronal transection, beginning dorsally at the colliculi and passing ventrally through the midbrain-pontine junction. After dissection, the forebrains were homogenized in Tris buffer in a Teflon®-glass homogenizer. The homogenate was diluted to a concentration of 1 g of forebrain tissue per 80 mL Tris and centrifuged at 39,000×g for 10 min. The pellet was resuspended in the same volume of Tris buffer containing 5 mM MgCl2 with several brief pulses from a Polytron homogenizer. This particulate preparation was used for the delta opioid binding assays. Following incubation with the delta selective peptide ligand ˜4 nM [^3H]DPDPE or 0.15 nM [^3H]naltrindole at 25° C. for 2.5 h in a 96-well plate with total volume of […], the plate contents were filtered through Wallac filtermat B sheets on a Tomtec 96-well harvester. The filters were rinsed three times with 2 mL of 10 mM HEPES (pH 7.4), and dried in a 650 W microwave oven for 1.75 min twice. To each sample area 2×50 μL of Betaplate Scint scintillation fluid (LKB) was added and the radioactivity was quantified on a LKB (Wallac) 1205 BetaPlate liquid scintillation counter.
as §1

[3] = rat forebrain membranes, [3H]DAMGO, 25° C., 2.5 h, read-out: mu (Ki)
[4] = rat forebrain membranes, [3H]DPDPE or [3H]naltrindole, 25° C., 2.5 h, read-out: delta (Ki)

T1 sequence (P33535 whole entry): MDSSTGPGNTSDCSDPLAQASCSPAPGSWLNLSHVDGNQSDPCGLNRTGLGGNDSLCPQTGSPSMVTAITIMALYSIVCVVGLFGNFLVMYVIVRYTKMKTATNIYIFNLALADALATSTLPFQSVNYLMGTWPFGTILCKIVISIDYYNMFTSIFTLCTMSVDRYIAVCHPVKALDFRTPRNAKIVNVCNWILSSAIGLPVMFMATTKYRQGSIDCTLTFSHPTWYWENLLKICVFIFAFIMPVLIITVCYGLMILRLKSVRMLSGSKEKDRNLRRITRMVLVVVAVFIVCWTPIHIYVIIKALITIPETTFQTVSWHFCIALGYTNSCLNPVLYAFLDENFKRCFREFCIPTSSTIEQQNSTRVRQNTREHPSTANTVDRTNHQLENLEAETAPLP

| Compound | Ki [1] | Ki [2] | Ki [1, 3] | Ki [2, 4] |
| --- | --- | --- | --- | --- |
| CCN(CC)C(=N)c1ccc2c(c1)Oc1ccccc1C2C1CCNCC1 (stereo not shown) [1p, N,N-Diethyl-9-piperidin-4-yl-9H-xanthene-3-carboxamidine] | > 10 µM | 0.0511 µM | – | – |
| CC(=O)Nc1ccccc1-c1ccc2c(c1)Oc1ccccc1C2C1CCNCC1 (stereo not shown) [2g, N-[2-(9-Piperidin-4-yl-9H-xanthen-3-yl)-phenyl]-acetamide] | – | – | > 10 µM | 1.02 µM |
| c1ccc2c(c1)Oc1cc(-c3ccncc3)ccc1C2C1CCNCC1 (stereo not shown) [2h, 4-(9-Piperidin-4-yl-9H-xanthen-3-yl)-pyridine] | – | – | > 10 µM | 4.53 µM |
| O=c1[nH]c(-c2ccc3c(c2)Oc2ccccc2C3C2CCNCC2)no1 (stereo not shown) [2m, 3-(9-Piperidin-4-yl-9H-xanthen-3-yl)-4H-[1,2,4]oxadiazol-5-one] | > 10 µM | 0.634 µM | – | – |
| CC(=O)Nc1ccccc1-c1ccc2c(c1)Oc1ccccc1C2C1CCN(Cc2ccoc2)CC1 (stereo not shown) [3g, N-{2-[9-(1-Furan-3-ylmethyl-piperidin-4-yl)-9H-xanthen-3-yl]-phenyl}-acetamide] | – | 0.1 µM | 4.44 µM | – |
| c1ccc2c(c1)Oc1cc(-c3ccncc3)ccc1C2C1CCN(Cc2ccoc2)CC1 (stereo not shown) [3h, 4-[9-(1-Furan-3-ylmethyl-piperidin-4-yl)-9H-xanthen-3-yl]-pyridine] | 4.26 µM | 0.791 µM | – | – |
| Oc1cccc2c1Oc1cc(-c3cccnc3)ccc1C2C1CCNCC1 (stereo not shown) [3i, 9-Piperidin-4-yl-6-pyridin-3-yl-9H-xanthen-4-ol] | > 10 µM | 0.242 µM | – | – |
| c1ccc2c(c1)Oc1cc(-c3nnn[nH]3)ccc1C2C1CCNCC1 (stereo not shown) [3l, 4-[3-(1H-Tetrazol-5-yl)-9H-xanthen-9-yl]-piperidine] | – | – | > 10 µM | 0.768 µM |
| CCN(CC)C(=N)c1ccc2c(c1)Oc1ccccc1C2C1CCN(Cc2ccoc2)CC1 (stereo not shown) [3p, N,N-Diethyl-9-(1-furan-3-ylmethyl-piperidin-4-yl)-9H-xanthene-3-carboxamidine] | – | 0.0161 µM | – | – |
| CC(=O)Nc1ccccc1-c1ccc2c(c1)Oc1c(O)cccc1C2C1CCNCC1 (stereo not shown) [4e, N-[2-(5-Hydroxy-9-piperidin-4-yl-9H-xanthen-3-yl)-phenyl]-acetamide] | – | 0.0381 µM | 0.289 µM | – |
| c1cncc(-c2ccc3c(c2)Oc2ccccc2C3C2CCNCC2)c1 (stereo not shown) [4f, 3-(9-Piperidin-4-yl-9H-xanthen-3-yl)-pyridine] | – | – | 1 µM | 0.161 µM |
| CC(=O)Nc1ccccc1-c1ccc2c(c1)Oc1ccccc1C2C1CCN(Cc2ccccn2)CC1 (stereo not shown) [4g, N-{2-[9-(1-Pyridin-2-ylmethyl-piperidin-4-yl)-9H-xanthen-3-yl]-phenyl}-acetamide] | – | – | 6.98 µM | 0.167 µM |
| c1ccc(CN2CCC(C3c4ccccc4Oc4cc(-c5ccncc5)ccc43)CC2)nc1 (stereo not shown) [4h, 4-[9-(1-Pyridin-2-ylmethyl-piperidin-4-yl)-9H-xanthen-3-yl]-pyridine] | 2.05 µM | 2.64 µM | – | – |
| Oc1cccc2c1Oc1cc(-c3cccnc3)ccc1C2C1CCN(Cc2cccs2)CC1 (stereo not shown) [4i, 6-Pyridin-3-yl-9-(1-thiophen-2-ylmethyl-piperidin-4-yl)-9H-xanthen-4-ol] | – | 0.0967 µM | – | – |
| c1ccc2c(c1)Oc1cc(-c3nnn[nH]3)ccc1C2C1CCN(Cc2ccoc2)CC1 (stereo not shown) [4l, 1-Furan-3-ylmethyl-4-[3-(1H-tetrazol-5-yl)-9H-xanthen-9-yl]-piperidine] | – | – | 6.32 µM | 0.498 µM |
| O=C(c1ccc2c(c1)Oc1ccccc1C2C1CCNCC1)N1CC[C@H](O)C1 (stereo partly drawn) [4n, (3-(S)-Hydroxy-pyrrolidin-1-yl)-(9-piperidin-4-yl-9H-xanthen-3-yl)-methanone] | – | – | > 10 µM | 0.434 µM |
| Oc1cccc2c1Oc1cc(-c3nnn[nH]3)ccc1C2C1CCNCC1 (stereo not shown) [4r, 9-Piperidin-4-yl-6-(1H-tetrazol-5-yl)-9H-xanthen-4-ol] | – | 0.014 µM | – | – |
| CCNC(=O)c1ccc2c(c1)Oc1c(O)cccc1C2C1CCNCC1 (stereo not shown) [5d, 5-Hydroxy-9-piperidin-4-yl-9H-xanthene-3-carboxylic acid ethylamide] | – | – | 0.876 µM | 0.209 µM |
| CC(=O)Nc1ccccc1-c1ccc2c(c1)Oc1c(O)cccc1C2C1CCN(Cc2ccccn2)CC1 (stereo not shown) [5e, N-{2-[5-Hydroxy-9-(1-pyridin-2-ylmethyl-piperidin-4-yl)-9H-xanthen-3-yl]-phenyl}-acetamide] | – | 0.0001 µM | – | – |

| Compound | Ki [1] | Ki [2] | Ki [1, 3] | Ki [2, 4] |
| --- | --- | --- | --- | --- |
| c1cncc(-c2ccc3c(c2)Oc2ccccc2C3C2CCN(Cc3ccoc3)CC2)c1 (stereo not shown) [5f, 3-[9-(1-Furan-3-ylmethyl-piperidin-4-yl)-9H-xanthen-3-yl]-pyridine] | – | – | 3.16 µM | 0.303 µM |
| CC(=O)Nc1ccccc1-c1ccc2c(c1)Oc1ccccc1C2C1CCN(CCc2ccccc2)CC1 (stereo not shown) [5g, N-{2-[9-(1-Phenethyl-piperidin-4-yl)-9H-xanthen-3-yl]-phenyl}-acetamide] | – | – | 0.995 µM | 4.57 µM |
| Oc1cccc2c1Oc1cc(-c3cccnc3)ccc1C2C1CCN(Cc2ccccc2)CC1 (stereo not shown) [5i, 9-(1-Benzyl-piperidin-4-yl)-6-pyridin-3-yl-9H-xanthen-4-ol] | – | 0.094 µM | – | – |
| O=C(c1ccc2c(c1)Oc1ccccc1C2C1CCN(Cc2ccoc2)CC1)N1CC[C@H](O)C1 (stereo partly drawn) [5n, [9-(1-Furan-3-ylmethyl-piperidin-4-yl)-9H-xanthen-3-yl]-(3-(S)-hydroxy-pyrrolidin-1-yl)-methanone] | – | – | > 10 µM | 0.177 µM |
| N#Cc1ccc2c(c1)Oc1c(O)cccc1C2C1CCNCC1 (stereo not shown) [5r, 5-Hydroxy-9-piperidin-4-yl-9H-xanthene-3-carbonitrile] | – | – | – | 0.166 µM |
| CC(=O)Nc1ccccc1-c1ccc2c(c1)Oc1c(O)cccc1C2C1CCN(Cc2cccs2)CC1 (stereo not shown) [6e, N-{2-[5-Hydroxy-9-(1-thiophen-2-ylmethyl-piperidin-4-yl)-9H-xanthen-3-yl]-phenyl}-acetamide] | – | 0.0001 µM | – | – |
| C=CCN1CCC(C2c3ccc(-c4cccnc4)cc3Oc3c(O)cccc32)CC1 (stereo not shown) [6i, 9-(1-Allyl-piperidin-4-yl)-6-pyridin-3-yl-9H-xanthen-4-ol] | – | 0.0275 µM | – | – |
| C=CCN1CCC(C2c3ccccc3Oc3cc(C(=O)N4CC[C@H](O)C4)ccc32)CC1 (stereo partly drawn) [7n, [9-(1-Allyl-piperidin-4-yl)-9H-xanthen-3-yl]-(3-(S)-hydroxy-pyrrolidin-1-yl)-methanone] | – | – | – | 9.23 µM |
| COc1cccc2c1Sc1cc(-c3cccnc3)ccc1C2C1CCNCC1 (stereo not shown) [9q, 3-(5-Methoxy-9-piperidin-4-yl-9H-thioxanthen-3-yl)-pyridine] | – | 0.0878 µM | – | – |
| Oc1cccc2c1Sc1cc(-c3cccnc3)ccc1C2C1CCNCC1 (stereo not shown) [10q, 9-Piperidin-4-yl-6-pyridin-3-yl-9H-thioxanthen-4-ol] | – | 0.0002 µM | – | – |
| COc1cccc2c1Sc1cc(-c3ccncc3)ccc1C2C1CCNCC1 (stereo not shown) [11q, 4-(5-Methoxy-9-piperidin-4-yl-9H-thioxanthen-3-yl)-pyridine] | – | 0.0681 µM | – | – |
| Oc1cccc2c1Sc1cc(-c3ccncc3)ccc1C2C1CCNCC1 (stereo not shown) [12q, 9-Piperidin-4-yl-6-pyridin-4-yl-9H-thioxanthen-4-ol] | – | 0.0007 µM | – | – |
| COc1cccc2c1Sc1cc(-c3ccccc3NC(C)=O)ccc1C2C1CCNCC1 (stereo not shown) [13q, N-[2-(5-Methoxy-9-piperidin-4-yl-9H-thioxanthen-3-yl)-phenyl]-acetamide] | – | – | – | 0.11 µM |
| CC(=O)Nc1ccccc1-c1ccc2c(c1)Sc1c(O)cccc1C2C1CCNCC1 (stereo not shown) [14q, N-[2-(5-Hydroxy-9-piperidin-4-yl-9H-thioxanthen-3-yl)-phenyl]-acetamide] | – | 0.0002 µM | – | – |
| Oc1cccc2c1Sc1cc(-c3ccncc3)ccc1C2C1CCN(Cc2ccccn2)CC1 (stereo not shown) [15q, 6-Pyridin-4-yl-9-(1-pyridin-2-ylmethyl-piperidin-4-yl)-9H-thioxanthen-4-ol] | – | 0.0001 µM | – | – |
| C=CCN1CCC(C2c3ccc(-c4ccccc4NC(C)=O)cc3Sc3c(O)cccc32)CC1 (stereo not shown) [16q, N-{2-[9-(1-Allyl-piperidin-4-yl)-5-hydroxy-9H-thioxanthen-3-yl]-phenyl}-acetamide] | – | – | – | 0.121 µM |
| Oc1cccc2c1Sc1cc(-c3cccnc3)ccc1C2C1CCN(Cc2ccccn2)CC1 (stereo not shown) [18q, 6-Pyridin-3-yl-9-(1-pyridin-2-ylmethyl-piperidin-4-yl)-9H-thioxanthen-4-ol] | – | 0.0004 µM | – | – |
| CC(=O)Nc1ccccc1-c1ccc2c(c1)Sc1c(O)cccc1C2C1CCN(Cc2ccccn2)CC1 (stereo not shown) [19q, N-{2-[5-Hydroxy-9-(1-pyridin-2-ylmethyl-piperidin-4-yl)-9H-thioxanthen-3-yl]-phenyl}-acetamide] | – | 0.0001 µM | – | – |
